# Test results from ChEMBL document CHEMBL2439953, “Dimeric argininamide-type neuropeptide Y receptor antagonists: chiral discrimination between Y1 and Y4 receptors” (Bioorg Med Chem, 2013).
# pKi: −log10 of the molar value.
# Key:
# [1] = target: T1, Neuropeptide Y receptor type 1 (Homo sapiens, UniProt P25929); assay: Displacement of [3H]UR-MK114 from human neuropeptide Y receptor type 1 expressed in human SK-N-MC cells; type: cell-based
# T1 sequence (P25929 whole entry): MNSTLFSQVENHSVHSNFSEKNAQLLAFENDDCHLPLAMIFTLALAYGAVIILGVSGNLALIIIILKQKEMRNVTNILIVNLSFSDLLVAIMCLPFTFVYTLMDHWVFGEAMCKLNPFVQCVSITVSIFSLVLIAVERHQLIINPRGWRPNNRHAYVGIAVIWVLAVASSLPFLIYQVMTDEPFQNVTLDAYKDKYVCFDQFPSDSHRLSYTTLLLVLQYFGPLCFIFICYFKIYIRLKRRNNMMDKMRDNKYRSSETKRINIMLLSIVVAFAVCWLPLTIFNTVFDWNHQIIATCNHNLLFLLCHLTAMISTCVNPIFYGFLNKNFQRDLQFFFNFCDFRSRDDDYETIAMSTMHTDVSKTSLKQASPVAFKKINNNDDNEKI
# [2] = target: T2, Neuropeptide Y receptor type 4 (Homo sapiens, UniProt P50391); assay: Binding affinity to human neuropeptide Y receptor type 4 receptor expressed in CHO cells using Cy5-[K4]-hPP by flow cytometric analysis; type: cell-based
# [3] = target: T3, Neuropeptide Y receptor type 2 (Homo sapiens, UniProt P49146); assay: Binding affinity to human neuropeptide Y receptor type 2 receptor expressed in CHO cells using Cy5-pNPY by flow cytometric analysis; type: cell-based
# T3 sequence (P49146 whole entry): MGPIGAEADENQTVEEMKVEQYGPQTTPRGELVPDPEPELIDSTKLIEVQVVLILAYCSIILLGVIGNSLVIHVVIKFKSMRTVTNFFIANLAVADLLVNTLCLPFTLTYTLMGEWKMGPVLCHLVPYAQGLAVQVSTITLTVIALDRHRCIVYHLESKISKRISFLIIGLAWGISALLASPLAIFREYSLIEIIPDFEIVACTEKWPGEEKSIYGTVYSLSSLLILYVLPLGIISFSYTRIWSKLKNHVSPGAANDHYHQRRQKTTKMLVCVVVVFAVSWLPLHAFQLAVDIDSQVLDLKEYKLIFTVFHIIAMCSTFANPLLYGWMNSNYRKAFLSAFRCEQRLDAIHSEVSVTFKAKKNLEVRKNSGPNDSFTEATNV
# [4] = target: T4, Neuropeptide Y receptor type 5 (Homo sapiens, UniProt Q15761); assay: Binding affinity to human neuropeptide Y receptor type 5 receptor expressed in HEC-1B cells using Cy5-pNPY by flow cytometric analysis; type: cell-based
# T4 sequence (Q15761 whole entry): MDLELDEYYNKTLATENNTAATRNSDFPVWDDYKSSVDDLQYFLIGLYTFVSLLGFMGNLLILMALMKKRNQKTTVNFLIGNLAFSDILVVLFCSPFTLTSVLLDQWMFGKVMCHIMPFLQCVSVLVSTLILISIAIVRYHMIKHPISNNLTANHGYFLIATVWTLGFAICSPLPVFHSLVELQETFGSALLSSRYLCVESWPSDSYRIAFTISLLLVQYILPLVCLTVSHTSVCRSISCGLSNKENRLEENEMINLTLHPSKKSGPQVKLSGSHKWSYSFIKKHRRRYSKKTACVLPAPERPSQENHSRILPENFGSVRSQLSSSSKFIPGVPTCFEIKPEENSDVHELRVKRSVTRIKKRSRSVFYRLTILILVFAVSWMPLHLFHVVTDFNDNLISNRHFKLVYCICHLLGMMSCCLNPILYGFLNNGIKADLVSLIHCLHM
# [5] = target: T2, Neuropeptide Y receptor type 4; assay: Antagonist activity at human neuropeptide Y receptor type 4 expressed in CHO cells co-expressing Gqi5-mtAEQ assessed as inhibition of hPP-induced calcium mobilization by Aequorin assay; type: functional, cell-based
# T2 sequence (P50391 whole entry): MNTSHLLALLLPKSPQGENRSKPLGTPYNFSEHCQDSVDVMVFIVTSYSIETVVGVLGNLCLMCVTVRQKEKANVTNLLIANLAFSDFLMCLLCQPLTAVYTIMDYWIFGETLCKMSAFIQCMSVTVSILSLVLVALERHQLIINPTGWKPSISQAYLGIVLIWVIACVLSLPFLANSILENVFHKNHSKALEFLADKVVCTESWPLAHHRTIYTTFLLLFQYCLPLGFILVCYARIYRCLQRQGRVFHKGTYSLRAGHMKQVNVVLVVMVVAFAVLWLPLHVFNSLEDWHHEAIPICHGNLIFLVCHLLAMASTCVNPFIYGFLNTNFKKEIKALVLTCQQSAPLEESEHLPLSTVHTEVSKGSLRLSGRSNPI
pKi [1],pKi [2],pKi [3],pKi [4],Kb [5],Compound
6.44,< 5.30,,,,NCCNC(=O)CCC(=O)NCCNC(=O)/N=C(\N)NCCC[C@@H](NC(=O)C(c1ccccc1)c1ccccc1)C(=O)NCc1ccc(CNC(N)=O)cc1
7.85,,,,,N=C(N)NCCC[C@@H](NC(=O)C(c1ccccc1)c1ccccc1)C(=O)NCc1ccc(CNC(=O)NCCCCNC(=O)CN)cc1
7.40,6.57,5.89,< 5.30,0.033 µM,NCCN(CCNC(=O)CCC(=O)NCCCCCCNC(=O)/N=C(/N)NCCC[C@@H](NC(=O)C(c1ccccc1)c1ccccc1)C(=O)NCc1ccc(O)cc1)CCNC(=O)CCC(=O)NCCCCCCNC(=O)/N=C(/N)NCCC[C@@H](NC(=O)C(c1ccccc1)c1ccccc1)C(=O)NCc1ccc(O)cc1
6.00,< 5.30,,,,NCCNC(=O)CCC(=O)NCCNC(=O)CCC(=O)NCCNC(=O)/N=C(\N)NCCC[C@@H](NC(=O)C(c1ccccc1)c1ccccc1)C(=O)NCc1ccc(CNC(N)=O)cc1
7.07,< 5.30,,,,NCCC(=O)NCCNC(=O)CCC(=O)NCCNC(=O)/N=C(\N)NCCC[C@@H](NC(=O)C(c1ccccc1)c1ccccc1)C(=O)NCc1ccc(CNC(N)=O)cc1
< 5.30,< 5.30,< 5.30,< 5.30,> 5 µM,NCCNC(=O)CCC(=O)NCCNC(=O)CCC(=O)NCCNC(=O)/N=C(\N)NCCC[C@H](NC(=O)C(c1ccccc1)c1ccccc1)C(=O)NCc1ccc(CNC(N)=O)cc1
7.38,6.26,6.00,< 5.30,0.032 µM,NCCN(CCNC(=O)CCCCC(=O)NCCCCNC(=O)/N=C(/N)NCCC[C@@H](NC(=O)C(c1ccccc1)c1ccccc1)C(=O)NCc1ccc(O)cc1)CCNC(=O)CCCCC(=O)NCCCCNC(=O)/N=C(/N)NCCC[C@@H](NC(=O)C(c1ccccc1)c1ccccc1)C(=O)NCc1ccc(O)cc1
,< 5.30,,,,N=C(N)NCCC[C@@H](NC(=O)C(c1ccccc1)c1ccccc1)C(=O)NCc1ccc(O)cc1
6.70,5.66,5.64,< 5.30,0.9 µM,N=C(N)NCCC[C@@H](NC(=O)C(c1ccccc1)c1ccccc1)C(=O)NCc1ccc(CNC(=O)NCCCCNC(=O)CNC(=O)CCC(=O)NCCN(CCN)CCNC(=O)CCC(=O)NCC(=O)NCCCCNC(=O)NCc2ccc(CNC(=O)[C@@H](CCCNC(=N)N)NC(=O)C(c3ccccc3)c3ccccc3)cc2)cc1
7.15,< 5.30,,,,NCCCOCCOCCOCCNC(=O)CCC(=O)NCCNC(=O)/N=C(\N)NCCC[C@@H](NC(=O)C(c1ccccc1)c1ccccc1)C(=O)NCc1ccc(CNC(N)=O)cc1
< 5.30,,8.15,,,NCCCCCCNC(=O)/N=C(/N)NCCC[C@H](NC(=O)CC1(CC(=O)N2CCN(C3c4ccccc4NC(=O)c4ccccc43)CC2)CCCC1)C(=O)NCCn1c(=O)n(-c2ccccc2)n(-c2ccccc2)c1=O (some centres undefined)
7.14,,,,,CCC(=O)NCC(=O)NCCCCNC(=O)NCc1ccc(CNC(=O)[C@@H](CCCNC(=N)N)NC(=O)C(c2ccccc2)c2ccccc2)cc1
,< 5.30,,,> 5 µM,N=C(N)NCCC[C@@H](NC(=O)C(c1ccccc1)c1ccccc1)C(=O)NCc1ccc(CNC(N)=O)cc1
8.00,,,,,NCCCCCCNC(=O)/N=C(/N)NCCC[C@@H](NC(=O)C(c1ccccc1)c1ccccc1)C(=O)NCc1ccc(O)cc1
< 5.30,5.49,< 5.30,< 5.30,> 5 µM,NCCOCCOCCNC(=O)CCC(=O)NCCNC(=O)/N=C(\N)NCCC[C@H](NC(=O)C(c1ccccc1)c1ccccc1)C(=O)NCc1ccc(CNC(N)=O)cc1
< 5.30,< 5.12,,< 5.30,,"N=C(N)NCCCC(NC(=O)CC1(CC(=O)N2CCN(C3c4ccccc4NC(=O)c4ccccc43)CC2)CCCC1)C(=O)NCCn1c(=O)n(-c2ccccc2)n(-c2ccccc2)c1=O (single isomer, unassigned)"
< 5.30,,< 5.30,< 5.30,,NCCOCCOCCNC(=O)/N=C(/N)NCCC[C@H](NC(=O)C(c1ccccc1)c1ccccc1)C(=O)NCc1ccc(O)cc1

pKi [1],pKi [2],pKi [3],pKi [4],Kb [5],Compound
5.92,< 5.30,,,,NCCC(=O)NCCNC(=O)CCC(=O)NCCNC(=O)CCC(=O)NCCNC(=O)/N=C(\N)NCCC[C@@H](NC(=O)C(c1ccccc1)c1ccccc1)C(=O)NCc1ccc(CNC(N)=O)cc1
8.14,< 5.30,< 5.30,< 5.30,,NCCOCCOCCNC(=O)/N=C(/N)NCCC[C@@H](NC(=O)C(c1ccccc1)c1ccccc1)C(=O)NCc1ccc(O)cc1
,< 5.30,,,,NC(N)=NCCC[C@H](NC(=O)C(c1ccccc1)c1ccccc1)C(=O)NCc1ccc(O)cc1
7.20,5.70,,,,NC(=NCCC[C@@H](NC(=O)C(c1ccccc1)c1ccccc1)C(=O)NCc1ccc(O)cc1)NC(=O)CCCCCCC(=O)NC(N)=NCCC[C@@H](NC(=O)C(c1ccccc1)c1ccccc1)C(=O)NCc1ccc(O)cc1
,< 5.30,,,,NCCCCNC(=O)/N=C(/N)NCCC[C@@H](NC(=O)C(c1ccccc1)c1ccccc1)C(=O)NCc1ccc(O)cc1
7.51,,,,,NCCOCCOCCNC(=O)/N=C(/N)NCCC[C@@H](NC(=O)C(c1ccccc1)c1ccccc1)C(=O)NCc1ccc(CNC(N)=O)cc1
7.11,< 5.30,,,,NCCOCCOCCNC(=O)CCC(=O)NCCNC(=O)/N=C(\N)NCCC[C@@H](NC(=O)C(c1ccccc1)c1ccccc1)C(=O)NCc1ccc(CNC(N)=O)cc1
< 5.30,5.39,< 5.30,,> 5 µM,NCCNC(=O)CCC(=O)NCCNC(=O)/N=C(\N)NCCC[C@H](NC(=O)C(c1ccccc1)c1ccccc1)C(=O)NCc1ccc(CNC(N)=O)cc1
7.28,6.68,6.11,< 5.30,0.034 µM,NCCN(CCNC(=O)c1ccc(C(=O)NCCCCNC(=O)/N=C(/N)NCCC[C@@H](NC(=O)C(c2ccccc2)c2ccccc2)C(=O)NCc2ccc(O)cc2)cc1)CCNC(=O)c1ccc(C(=O)NCCCCNC(=O)/N=C(/N)NCCC[C@@H](NC(=O)C(c2ccccc2)c2ccccc2)C(=O)NCc2ccc(O)cc2)cc1
< 5.30,5.46,< 5.30,< 5.30,> 5 µM,NCCC(=O)NCCNC(=O)CCC(=O)NCCNC(=O)CCC(=O)NCCNC(=O)/N=C(\N)NCCC[C@H](NC(=O)C(c1ccccc1)c1ccccc1)C(=O)NCc1ccc(CNC(N)=O)cc1
6.89,5.42,,< 5.30,,N=C(N)NCCOCCOCCNC(=O)/N=C(/N)NCCC[C@@H](NC(=O)C(c1ccccc1)c1ccccc1)C(=O)NCc1ccc(O)cc1
< 5.30,5.48,< 5.30,< 5.30,> 5 µM,NCCC(=O)NCCNC(=O)CCC(=O)NCCNC(=O)/N=C(\N)NCCC[C@H](NC(=O)C(c1ccccc1)c1ccccc1)C(=O)NCc1ccc(CNC(N)=O)cc1
7.39,< 5.30,,,> 5 µM,N=C(N)NCCC[C@@H](NC(=O)C(c1ccccc1)c1ccccc1)C(=O)NCc1ccc(CNC(=O)NCCCCN)cc1
6.05,,,,,N=C(N)NCCC[C@@H](NC(=O)C(c1ccccc1)c1ccccc1)C(=O)NCc1ccc(CNC(=O)NCCCCNC(=O)NCCN)cc1
6.70,< 5.30,,,> 5 µM,NCCCCCCNC(=O)/N=C(/N)NCCC[C@@H](NC(=O)C(c1ccccc1)c1ccccc1)C(=O)NCc1ccc(CNC(N)=O)cc1
< 5.30,5.43,< 5.30,< 5.30,> 5 µM,NCCCOCCOCCOCCNC(=O)CCC(=O)NCCNC(=O)/N=C(\N)NCCC[C@H](NC(=O)C(c1ccccc1)c1ccccc1)C(=O)NCc1ccc(CNC(N)=O)cc1

Compound,pKi [1],pKi [2],pKi [3],pKi [4],Kb [5]
NCCN(CCNC(=O)c1ccc(C(=O)NCCOCCOCCNC(=O)/N=C(/N)NCCC[C@H](NC(=O)C(c2ccccc2)c2ccccc2)C(=O)NCc2ccc(O)cc2)cc1)CCNC(=O)c1ccc(C(=O)NCCOCCOCCNC(=O)/N=C(/N)NCCC[C@H](NC(=O)C(c2ccccc2)c2ccccc2)C(=O)NCc2ccc(O)cc2)cc1,< 5.30,6.59,5.85,< 5.30,0.027 µM
